Laboratory results as given in patent US7759337B2, “Phthalazine compounds and methods of use” (Amgen Inc., priority 2005, dated 2010).

test system: production of TNF by monocytes activated with bacterial lipopolysaccharide (LPS); test: Lipopolysaccharide-activated monocyte TNF production assay; assay type: cell-based; details: Homo sapiens; whole blood monocyte assay (LPS induced TNF release)
In short: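 Adherent human PBMC-derived monocytes preincubated 60 min with nine two-fold compound dilutions, then stimulated with E. coli K532 LPS (30 ng/mL in the added medium) for 4 h at 37 °C. Supernatant TNF measured by sandwich ELISA; IC50 is the compound concentration halving TNF production, from second-order polynomial fits.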

Compound	IC50 [µM]
Fc1ccc(Oc2ccc3c(-c4cn[nH]c4)nncc3c2)cc1 [Example 344, 6-(4-fluorophenoxy)-1-(1H-pyrazol-4-yl)phthalazine]	≤ 5
Cc1ccc(C(=O)NC2CC2)cc1-c1ccc2c(NCCN3CCOCC3)nncc2c1 [Example 111, N-cyclopropyl-4-methyl-3-{1-[(2-morpholin-4-ylethyl)amino]phthalazin-6-yl}benzamide]	≤ 5
CC[C@H](C)Nc1nncc2cc(-c3cc(C(=O)NC4CC4)ccc3C)ccc12 [Example 298, N-cyclopropyl-4-methyl-3-(1-{[(1S)-1-methylpropyl]amino}phthalazin-6-yl)benzamide]	≤ 5
Cc1ccc(C(N)=O)cc1-c1ccc2c(N3CCOCC3)nncc2c1 [Example 175, 4-methyl-3-(1-morpholin-4-ylphthalazin-6-yl)benzamide]	≤ 5
CCNC(=O)c1ccc(C)c(-c2ccc3c(NC(C)C)nncc3c2)c1 [Example 117, N-ethyl-3-[1-(isopropylamino)phthalazin-6-yl]-4-methylbenzamide]	≤ 5
COc1cc(F)ccc1-c1nncc2cc(-c3cc(C(=O)NC4CC4)ccc3C)ccc12 [Example 262, N-cyclopropyl-3-[1-(4-fluoro-2-methoxyphenyl)phthalazin-6-yl]-4-methylbenzamide]	≤ 5
Cc1ccc(C(N)=O)cc1-c1ccc2c(N3CC[S+]([O-])CC3)nncc2c1 [Example 60, 4-methyl-3-[1-(1-oxidothiomorpholin-4-yl)phthalazin-6-yl]benzamide]	≤ 5
Cc1ccc(C(N)=O)cc1-c1ccc2c(OCC(C)(C)C)nncc2c1 [Example 315, 4-methyl-3-[1-(neopentyloxy)phthalazin-6-yl]benzamide]	≤ 5
CC[C@H](C)Nc1nncc2cc(-c3cc(C(N)=O)ccc3C)ccc12 [Example 303, 4-methyl-3-(1-{[(1S)-1-methylpropyl]amino}phthalazin-6-yl)benzamide]	≤ 5
Cc1ccc(C(=O)NC2CC2)cc1-c1ccc2c(-c3cccnc3Cl)nncc2c1 [Example 233, 3-[1-(2-chloropyridin-3-yl)phthalazin-6-yl]-N-cyclopropyl-4-methylbenzamide]	≤ 5
COc1c(F)cccc1-c1nncc2cc(-c3cc(C(=O)NC4CC4)ccc3C)ccc12 [Example 248, N-cyclopropyl-3-[1-(3-fluoro-2-methoxyphenyl)phthalazin-6-yl]-4-methylbenzamide]	≤ 5
Cc1ccc(C(=O)NC2CC2)cc1-c1ccc2c(-c3ccc(F)cc3)nncc2c1 [Example 239, N-cyclopropyl-3-[1-(4-fluorophenyl)phthalazin-6-yl]-4-methylbenzamide]	≤ 5
Cc1ccc(C(=O)NC2CC2)cc1-c1ccc2c(N3CCC[C@@H](C(N)=O)C3)nncc2c1 [Example 132, (3R)-1-(6-{5-[(cyclopropylamino)carbonyl]-2-methylphenyl}phthalazin-1-yl)piperidine-3-carboxamide]	≤ 5
CCNc1noc2c(-c3ccc4c(NC(C)C)nncc4c3)c(C)ccc12 [Example 389, 6-[3-(ethylamino)-6-methyl-1,2-benzisoxazol-7-yl]-N-isopropylphthalazin-1-amine]	≤ 5
Cc1ccc2c(N)noc2c1-c1ccc2c(NC(C)C)nncc2c1 [Example 385, 6-(3-amino-6-methyl-1,2-benzisoxazol-7-yl)-N-isopropylphthalazin-1-amine]	≤ 5
Cc1cc(C(=O)NC2CC2)sc1-c1ccc2c(N3CCOCC3)nncc2c1 [Example 46, N-cyclopropyl-4-methyl-5-(1-morpholinophthalazin-6-yl)thiophene-2-carboxamide]	≤ 5
Cc1ccc(C(N)=O)cc1-c1ccc2c(N3CCN4C(=O)OC[C@@H]4C3)nncc2c1 [Example 280, 3-{1-[(8aS)-3-oxotetrahydro[1,3]oxazolo[3,4-a]pyrazin-7(1H)-yl]phthalazin-6-yl}-4-methylbenzamide]	≤ 5
CCc1ccccc1-c1nncc2cc(-c3cc(C(=O)NC4CC4)ccc3C)ccc12 [Example 251, N-cyclopropyl-3-[1-(2-ethylphenyl)phthalazin-6-yl]-4-methylbenzamide]	≤ 5
CCNC(=O)N1CCN(c2nncc3cc(-c4cc(C(=O)NC5CC5)ccc4C)ccc23)CC1 [Example 129, 4-(6-{5-[(cyclopropylamino)carbonyl]-2-methylphenyl}phthalazin-1-yl)-N-ethylpiperazine-1-carboxamide]	≤ 5
Cc1ccc(C(=O)NC2CC2)cc1-c1ccc2c(-c3cccnc3C)nncc2c1 [Example 241, N-cyclopropyl-4-methyl-3-[1-(2-methylpyridin-3-yl)phthalazin-6-yl]benzamide]	≤ 5
Cc1ccc(C(N)=O)cc1-c1ccc2c(-c3ccc(S(N)(=O)=O)cc3C)nncc2c1 [Example 236, 3-{1-[4-(aminosulfonyl)-2-methylphenyl]phthalazin-6-yl}-4-methylbenzamide]	≤ 5
COc1ncccc1-c1ccc2c(-c3cccnc3OC)nncc2c1 [Example 375, 1,6-bis(2-methoxypyridin-3-yl)phthalazine]	≤ 5

Compound	IC50 [µM]
COc1ccc(-c2nncc3cc(-c4cc(C(N)=O)ccc4C)ccc23)c(OC)c1 [Example 226, 3-[1-(2,4-dimethoxyphenyl)phthalazin-6-yl]-4-methylbenzamide]	≤ 5
CCSc1nncc2cc(-c3cc(C(=O)NC4CC4)ccc3C)ccc12 [Example 55, N-cyclopropyl-3-(1-(ethylthio)phthalazin-6-yl)-4-methylbenzamide]	≤ 5
COc1ncc(-c2nncc3cc(-c4cc(C(N)=O)ccc4C)ccc23)c(OC)n1 [Example 225, 3-[1-(2,4-dimethoxypyrimidin-5-yl)phthalazin-6-yl]-4-methylbenzamide]	≤ 5
Cc1ccc(C(=O)Nc2ccon2)cc1-c1ccc2c(N3CCOCC3)nncc2c1 [Example 108, N-(Isoxazol-3-yl)-4-methyl-3-(1-morpholinophthalazin-6-yl)benzamide]	≤ 5
Cc1ccc(C(=O)NC2CC2)cc1-c1ccc2c(NCCN(C)C)nncc2c1 [Example 183, N-cyclopropyl-3-(1-{[2-(dimethylamino)ethyl]amino}phthalazin-6-yl)-4-methylbenzamide]	≤ 5
Cc1ccc(C(N)=O)cc1-c1ccc2c(OC(C)C)nncc2c1 [Example 155, 3-(1-isopropoxyphthalazin-6-yl)-4-methylbenzamide]	≤ 5
CS(=O)(=O)N1CCN(c2nncc3cc(Oc4ccc(F)cc4)ccc23)CC1 [Example 353, 6-(4-fluorophenoxy)-1-[4-(methylsulfonyl)piperazin-1-yl]phthalazine]	≤ 5
Cc1ccc(C(=O)NC2CC2)cc1-c1ccc2c(N3CCOC[C@@H]3C)nncc2c1 [Example 178, N-cyclopropyl-4-methyl-3-{1-[(3S)-3-methylmorpholin-4-yl]phthalazin-6-yl}benzamide]	≤ 5
Cc1ccccc1-c1nncc2cc(-c3c(C)ccc(C(=N)NC4CC4)c3O)ccc12 [Example 378, N-cyclopropyl-2-hydroxy-4-methyl-3-[1-(2-methylphenyl)phthalazin-6-yl]benzenecarboximidamide]	≤ 5
Cc1ccccc1-c1nncc2cc(Oc3cccc(Cl)c3)ccc12 [Example 338, 6-(3-chlorophenoxy)-1-(2-methylphenyl)phthalazine]	≤ 5
Cc1ccc(Oc2ccc3c(-c4ccccc4Cl)nncc3c2)cc1 [Example 346, 1-(2-chlorophenyl)-6-(4-methylphenoxy)phthalazine]	≤ 5
COc1c(C)cccc1-c1nncc2cc(-c3cc(C(N)=O)ccc3C)ccc12 [Example 204, 3-[1-(2-methoxy-3-methylphenyl)phthalazin-6-yl]-4-methylbenzamide]	≤ 5
Cc1ccc(C(N)=O)cc1-c1ccc2c(NC3CCCC3)nncc2c1 [Example 323, 3-[1-(cyclopentylamino)phthalazin-6-yl]-4-methylbenzamide]	≤ 5
Cc1ccc(C(=O)NC2CC2)cc1-c1ccc2c(NC(C)(C)C)nncc2c1 [Example 327, 3-[1-(tert-butylamino)phthalazin-6-yl]-N-cyclopropyl-4-methylbenzamide]	≤ 5
Cc1ccc(C(=O)NC2CC2)cc1-c1ccc2c(N3CCC[C@H]3C)nncc2c1 [Example 296, N-cyclopropyl-4-methyl-3-{1-[(2R)-2-methylpyrrolidin-1-yl]phthalazin-6-yl}benzamide]	≤ 5
Cc1ccc(C(=O)NC2CC2)cc1-c1ccc2c(N3C[C@@H]4C[C@H]3CN4C(C)C)nncc2c1 [Example 144, N-cyclopropyl-3-{1-[(1S,4S)-5-isopropyl-2,5-diazabicyclo[2.2.1]hept-2-yl]phthalazin-6-yl}-4-methylbenzamide]	≤ 5
Cc1ccc(C(N)=O)cc1-c1ccc2c(Oc3ccc(F)cc3F)nncc2c1 [Example 304, 3-[1-(2,4-difluorophenoxy)phthalazin-6-yl]-4-methylbenzamide]	≤ 5
Cc1ccc([N+](=O)[O-])cc1-c1ccc2c(N3CCOCC3)nncc2c1 [Example 137, 6-(2-methyl-5-nitrophenyl)-1-morpholin-4-ylphthalazine]	≤ 5
Cc1ccc(S(=O)(=O)NC2CC2)cc1-c1ccc2c(N3CCOCC3)nncc2c1 [Example 360, N-cyclopropyl-4-methyl-3-(1-morpholin-4-ylphthalazin-6-yl)benzenesulfonamide]	≤ 5
Cc1ccc(C(=O)NC2CC2)cc1-c1ccc2c(N3CCCC3C)nncc2c1 (centres unmarked) [Example 105, N-cyclopropyl-4-methyl-3-(1-(2-methylpyrrolidin-1-yl)phthalazin-6-yl)benzamide]	≤ 5
Cc1ccc(C(N)=O)cc1-c1ccc2c(N[C@H](C)CO)nncc2c1 [Example 185, 3-(1-{[(1R)-2-hydroxy-1-methylethyl]amino}phthalazin-6-yl)-4-methylbenzamide]	≤ 5
Cc1ccc(C(N)=O)cc1-c1ccc2c(-c3ccccc3C)nncc2c1 [Example 176, 4-methyl-3-[1-(2-methylphenyl)phthalazin-6-yl]benzamide]	≤ 5
